Source: patent US11547699B2, “[2-[(5-nitro-1,3-thiazol-2-yl)carbamoyl]phenyl]ethanoate for use in lymphangioleiomyomatosis and other diseases” (priority 2017, dated 2023)

Tests used:
[1] = test system: phosphorylation of the ribosomal protein S6 in MEF cells; assay: rpS6 phosphorylation in MEF cells (ELISA and Western blotting), read-out for mTOR pathway activity; assay type: cell-based, mouse; conditions: 60 minutes incubation
Text: These assays are used to test the effect of a compound on the activity of the mTOR pathway. Phosphorylation of ribosomal protein rp60 is used as read-out for mTOR pathway activity. […] Thus, these assays mimic a disease causative mechanism.
MEFs are mouse embryo fibroblasts derived from TSC2 knockout (MEF110) and TSC2+ (MEF157) mice. Tsc2 mutations are known to cause tuberous sclerosis and lymphangioleiomyomatosis in humans.
All cells were maintained in DMEM tissue culture medium, with the addition of fetal calf serum to 10% to support cell proliferation, at 37° C. and 5% CO2.
In MEFs, ribosomal protein S6, which is a component of the 40S ribosome, and phosphorylated at Ser236 by p70 S6 kinase can be assayed by ELISA and Western blotting, using phospho-specific antibodies which detect both the human and the mouse forms of rpS6. This assay is predicitve of compounds with protective or therapetic activities for respiratory and vascular diseases, fibrotic diseases, or neurodegenerative diseases.
Cells were grown to 60-80% confluence in DMEM+10% serum. Medium was replaced with fresh serum free medium two hours before addition of test compound of the invention.
Compound was added as a 1:1000 dilution of the stock solution in DMSO. DMSO was added as a vehicle control, and samples were incubated for a further 60 minutes. […]

[2] = test system: phosphorylation of the ribosomal protein S6 in 621-101 cells; assay: rpS6 phosphorylation in 621-101 cells (ELISA and Western blotting), read-out for mTOR pathway activity; assay type: cell-based, human; conditions: 60 minutes incubation
Protocol: These assays are used to test the effect of a compound on the activity of the mTOR pathway. Phosphorylation of ribosomal protein rp60 is used as read-out for mTOR pathway activity. […] Thus, these assays mimic a disease causative mechanism. 621-101 cells are human cells derived from an angiomyolipoma. They have verified TSC2 mutations and are the only disease-derived mutation-bearing cells used that are mimicking the disease Lymphangioleiomyomitosis. Cells were grown to 60-80% confluence in DMEM+10% serum. Medium was replaced with fresh serum free medium two hours before addition of test compound of the invention. Compound was added as a 1:1000 dilution of the stock solution in DMSO. DMSO was added as a vehicle control, and samples were incubated for a further 60 minutes. For ELISA, cells were harvested into 200 ul cell lysis buffer containing both protease and phosphatase inhibitors, to protect the phosphorylation status of rpS6. Lysates were stored at −80° C. prior to use. 50 ul of lysate per sample was used for the ELISA, which was carried out according to manufacturers' instructions. For Western blotting, cells were harvested into 200 ul cell lysis buffer containing both protease and phosphatase inhibitors and resolved by SDS-PAGE before transfer to PVDF membrane and incubation with anti-phospho-rpS6 and anti-total-rpS6 antibodies.

## CC(=O)Oc1ccccc1C(=O)Nc1ncc([N+](=O)[O-])s1 [the compound of the invention, [2-[(5-nitro-1,3-thiazol-2-yl)carbamoyl]phenyl]ethanoate]
[1]
  tolerability by the cells: well tolerated
[2]
  tolerability by the cells: well tolerated
